Each structure is given as a SMILES string.

One test concerns the target BACE1 (Homo sapiens (Human), UniProt P56817). Briefly: Cellular Aβ-lowering assay (Aβ40 ELISA in HEK293 cells expressing human APP695). The format is cell-based. The following applies: HEK293 cells stably transfected with human APP wt (APP695), Aβ40 in supernatant after 18-20 hrs. The method, then: Cellular Aβ-Lowering Assay:
Human HEK293 cells which are stably transfected with a vector expressing a cDNA of the human APP wt gene (APP695) were used to assess the potency of the compounds in a cellular assay. The cells were seeded in 96-well microtiter plates in cell culture medium (Iscove, plus 10% (v/v) fetal bovine serum, glutamine, penicillin/streptomycin) to about 80% confluence and the compounds were added at a 10× concentration in 1/10 volume of medium without FCS containing 8% DMSO (final concentration of DMSO was kept at 0.8% v/v). After 18-20 hrs incubation at 37° C. and 5% CO2 in a humidified incubator the culture supernatant was harvested for the determination of Aβ40 concentrations. 96 well ELISA plates (e.g., Nunc MaxiSorb) were coated with monoclonal antibody which specifically recognize the C-terminal end of Aβ40 (Brockhaus et al., NeuroReport 9, 1481-1486; 1998). After blocking of non-specific binding sites with e.g. 1% BSA and washing, the culture supernatants were added in suitable dilutions together with a horseradish peroxidase-coupled Aβ detection antibody (e.g., antibody 4G8, Senetek, Maryland Heights, Mo.) and incubated for 5 to 7 hrs. Subsequently the wells of the microtiter plate were washed extensively with Tris-buffered saline containing 0.05% Tween 20 and the assay was developed with tetramethylbenzidine/H2O2 in citric acid buffer. After stopping the reaction with one volume 1NH2SO4 the reaction was measured in an ELISA reader at 450 nm wavelength. The concentrations of Aβ in the culture supernatants were calculated from a standard curve obtained with known amounts of pure Aβ peptide.
On the technique in general: An ELISA detects its analyte on a solid surface through an enzyme-linked reagent.

The target of the next test is BACE2 (Homo sapiens (Human), UniProt Q9Y5Z0). Briefly: Immunofluorescence Resonance Energy Transfer (FRET) assay for BACE2 inhibition. The class given is biochemical. The note with it: TMEM27-based peptide substrate 5 μM, pH 4.5. The procedure:
Immunofluorescence Resonance Energy Transfer (FRET) Assay for BACE2 Inhibition:
BACE2 enzyme ectodomain (derived from plasmid “pET17b-T7-hu proBACE2”) was prepared as described in Ostermann et al., “Crystal Structure of Human BACE2 in Complex with a Hydroxyethylamine Transition-state Inhibitor”, Journal of Molecular Biology 2006, 355, 249-261. The pro-enzyme was stored at 4° C. at a concentration of 70 μg/ml.
The FRET assay was performed essentially as described in Grüninger-Leitch et al., Journal of Biological Chemistry (2002) 277(7) 4687-93 (“Substrate and inhibitor profile of BACE (beta-secretase) and comparison with other mammalian aspartic proteases”). In summary, a peptide is designed that is cleaved by the protease. The peptide is labelled with dabcyl at the N terminus and Lucifer Yellow at the C-terminus, such that for an intact peptide the Lucifer Yellow fluorescence is quenched by the dabcyl. When the peptide is cut by BACE2, the quenching is removed and a fluorescent signal is generated.
The assay was performed as described in Grueninger et al. 2002 at pH 4.5 using a substrate concentration of 5 μM. A FRET peptide based on the TMEM27 sequence was devised. dabcyl-[…]-LucY (SEQ ID NO: 1).
The assay readout is the initial rate of change of fluorescence intensity giving a relative measure of BACE2 activity. Small values correspond to high inhibition and larger values to low inhibition. […] IC50 values were determined using these assay values generated for a range of inhibitor concentrations and the curve fitting software XLfit (IDBS) using the Sigmoidal Dose-Response Model.

BACE1, sequence (P56817 46-501): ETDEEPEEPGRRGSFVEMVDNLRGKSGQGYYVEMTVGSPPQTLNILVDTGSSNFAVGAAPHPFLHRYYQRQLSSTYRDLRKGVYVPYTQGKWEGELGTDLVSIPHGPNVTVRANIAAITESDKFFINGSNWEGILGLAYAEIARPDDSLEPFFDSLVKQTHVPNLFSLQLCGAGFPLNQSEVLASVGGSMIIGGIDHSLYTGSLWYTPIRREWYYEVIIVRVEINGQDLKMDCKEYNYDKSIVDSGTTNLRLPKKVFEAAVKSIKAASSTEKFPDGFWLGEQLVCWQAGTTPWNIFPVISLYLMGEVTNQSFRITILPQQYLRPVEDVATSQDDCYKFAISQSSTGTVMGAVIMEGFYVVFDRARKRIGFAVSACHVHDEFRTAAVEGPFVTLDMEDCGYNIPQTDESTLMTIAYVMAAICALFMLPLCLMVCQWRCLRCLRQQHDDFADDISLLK
BACE2, sequence (Q9Y5Z0 63-473): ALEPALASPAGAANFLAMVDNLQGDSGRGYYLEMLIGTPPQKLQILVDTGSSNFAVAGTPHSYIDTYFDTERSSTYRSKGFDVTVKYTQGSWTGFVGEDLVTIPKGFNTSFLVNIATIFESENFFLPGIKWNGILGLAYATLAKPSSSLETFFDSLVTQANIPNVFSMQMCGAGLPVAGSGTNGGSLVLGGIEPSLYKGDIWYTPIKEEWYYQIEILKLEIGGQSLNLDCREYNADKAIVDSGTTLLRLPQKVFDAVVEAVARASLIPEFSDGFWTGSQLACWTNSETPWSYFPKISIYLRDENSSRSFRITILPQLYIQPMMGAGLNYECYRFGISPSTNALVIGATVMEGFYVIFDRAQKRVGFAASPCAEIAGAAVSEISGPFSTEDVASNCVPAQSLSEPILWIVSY

Turning to `C[C@]1(c2cc(NC3CCOCC3)ccc2F)N=C(N)COC[C@@H]1F` [Example 5, (5R,6R)-6-Fluoro-5-[2-fluoro-5-(tetrahydro-pyran-4-ylamino)-phenyl]-5-methyl-2,5,6,7-tetrahydro-[1,4]oxazepin-3-ylamine], the IC50 (usually the concentration that gives 50% inhibition) was found to be 2400 nM against BACE1 and 1480 nM against BACE2.
In the same order, the values of `CC1(C)OCC(N)=N[C@](C)(c2cc(N[C@@H]3CCc4cc(C#N)cnc43)c(F)cc2F)C1(F)F` [Example 21, (R)-7-[5-((R)-3-Amino-6,6-difluoro-5,7,7-trimethyl-2,5,6,7-tetrahydro-[1,4]oxazepin-5-yl)-2,4-difluoro-phenylamino]-6,7-dihydro-5H-[1]pyrindine-3-carbonitrile] are 14000 nM and 2810 nM.
On to `C[C@]1(c2cc(N[C@@H]3CCc4cc(Cl)cnc43)ccc2F)N=C(N)COCC1(F)F` [Example 9, [3-((R)-3-Amino-6,6-difluoro-5-methyl-2,5,6,7-tetrahydro-[1,4]oxazepin-5-yl)-4-fluoro-phenyl]-((R)-3-chloro-6,7-dihydro-5H-[1]pyrindin-7-yl)-amine], for which the results for the half-inhibitory concentration (IC50) against BACE1 and against BACE2 were 2100 nM and 650 nM, respectively.
In the case of `CC1(C)OCC(N)=N[C@](C)(c2cc(N[C@H]3CCc4cc(C#N)cnc43)ccc2F)C1(F)F` [Example 12, (S)-7-[3-((R)-3-Amino-6,6-difluoro-5,7,7-trimethyl-2,5,6,7-tetrahydro-[1,4]oxazepin-5-yl)-4-fluoro-phenylamino]-6,7-dihydro-5H-[1]pyrindine-3-carbonitrile], the IC50 against BACE1 came to 120 nM; on BACE2 it was 5 nM.
With `CC1(C)OCC(N)=N[C@](C)(c2cc(NC3CCc4cc(Cl)cnc43)ccc2F)C1(F)F` (stereo partly drawn) [Example 14, [3-((R)-3-Amino-6,6-difluoro-5,7,7-trimethyl-2,5,6,7-tetrahydro-[1,4]oxazepin-5-yl)-4-fluoro-phenyl]-(3-chloro-6,7-dihydro-5H-[1]pyrindin-7-yl)-amine], the IC50 turned out to be 71 nM on BACE1 and 28 nM on BACE2.
In the same order, the values of `C[C@]1(c2cc(NC3CCOC3)ccc2F)N=C(N)COC[C@@H]1F` (stereo partly drawn) [Example 3, (5R,6R)-6-Fluoro-5-[2-fluoro-5-(tetrahydro-furan-3-ylamino)-phenyl]-5-methyl-2,5,6,7-tetrahydro-[1,4]oxazepin-3-ylamine] are 580 nM and 72 nM.

The values above are taken from patent US8748418B2, “1,4-oxazepines as BACE1 and/or BACE2 inhibitors” (Hoffmann-La Roche Inc., priority 2011, dated 2014).
